{"source": "patent US7507727B2", "about": "“Substituted quinobenzoxazine analogs and methods of using thereof” (Cylene Pharmaceuticals, Inc., priority 2003, dated 2009)", "key": {"[1]": {"system": "MiaPaCa xenograft", "experiment": "MiaPaCa pancreatic cancer xenograft model", "assay_type": "in vivo, mice", "settings": "5, 10 and 15 mg/kg i.p. q.o.d., FIG. 10", "description": "CX-3543 was tested against a number of cancer xenograft models to determine the in vivo efficacy. HCT-116 and PC-3 tumor-bearing nu/nu or MiaPaCa tumor-bearing SCID mice were administered reference and testing compounds on schedules indicated in figure legends. Tumor measurements were taken with calipers every other day or twice a week starting from the first day of dosing and body weights were measured at the same time points. Tumor volumes were calculated from the standard formula, W^2×L/2. c-MYC mRNA expression was measured with QPCR from all tumor samples following the final dose. 18S ribosomal RNA was used as a housekeeper and also quantified with QPCR."}, "[2]": {"experiment": "Pharmacokinetic study in mice, intravenous", "assay_type": "in vivo", "settings": "25 mg/kg intravenous", "from_the_text": "Pharmacokinetic studies for evaluating pharmacokinetic properties of compounds are designed as follows. Male animals (mouse, Balb/c or rat, SD) aged five to six weeks and/or rats weighing more than 200 grams will be used for testing. One group will be untreated and samples taken to be used as a base line. The other three groups will be treated and administered a single dose of compounds by intravenous injection.\nDosing Procedure. Compounds will be administered via IV (lateral tail vein), IP or PO. Animals will be dosed in a systematic order that distributes the time of dosing similarly across all groups. For IP and PO dosing, animals will be manually restrained. For IV bolus dosing or short term IV infusion (one minute), animals will be mechanically restrained but not sedated. Disposable sterile syringes will be used for each animal/dose.\nApproximately 0.5 ml of blood will be collected from the naive animals via cardiac puncture prior to the first dose. Terminal blood samples (0.5 ml) will be collected via cardiac puncture from two animals per group per time point according to the above chart. All samples will be placed in tubes containing lithium heparin as anticoagulant and mixed immediately by inverting. They will be centrifuged and the plasma flash frozen in liquid nitrogen, stored at −70° C. or greater and analyzed for drug levels.\nA pharmacokinetic study to determine the time course of CX-3543 disposition was conducted in mice following intravenous administered of 25 mg/kg of CX-3543. Regular sampling was undertaken throughout a 24 hour period after IV dose administration, and the key derived pharmacokinetic parameters were derived. FIG. 11 provides the graphical representation of the pharmacokinetic profile of CX-3543 from which key parameters (Table 11) were obtained.\nIn FIG. 11, Cmax is the maximum CX-3543 plasma concentration attained (expressed in ng/ml); AUC0-inf is the area under the CX-3543 plasma concentration versus time curve, extrapolated from time zero to infinity (expressed in ng.hr/ml); T1/2 is the terminal half life of CX-3543 (expressed in hr); Vdss is the volume of distribution of CX-3543 at steady state (expressed in L/kg); and ClS is the systemic clearance of CX-3543 (expressed in L/hr/kg)."}, "[3]": {"experiment": "Pharmacokinetic/toxicokinetic evaluation in rats", "assay_type": "in vivo", "settings": "for Cmax / AUC(0-t) / half-life / AUC(0-inf): rat, plasma", "description": "The study was conducted using three (3) test and one (1) control article groups. The high and low test article groups and the control group consisted of 28 animals each and were used to assess tolerance. The medium test article group consisted of 64 animals of which 28 animals were used to assess tolerance and 36 animals were used to determine the level of test article in the blood at various time points after the first and fifth doses in the PK/TK portion of the study. The control article was the solution (5% dextrose in water; D5W) used to dilute the test article prior to administration and was administered at the same volume as the high dose test article group. […] Test and control articles were administered by intravenous (IV) injection into a tail vein over one minute on five consecutive days.\nBlood samples for test article blood level analysis were taken as follows. Approximately 0.3-0.5 mL of blood was taken from three male and three female rats under anesthesia at each sample time point of pre-dose and at the end of injection (Time 0) and at approximately 0.08, 0.25, 0.5, 1, 2, 4, 8, 12, and 24 hours from the end of the injection after the first and fifth doses. Animals used to assess tolerance were terminated one day (for the primary group) or 15 days (for the recovery group) after the last dose. At termination of the tolerance test animals, blood for hematology and clinical chemistry analysis was drawn prior to euthanasia and following euthanasia. A necropsy was performed to include collection of major organs for microscopic evaluation. The animals used for the pk/tk blood sampling only to determine the level of test article were euthanized after the final blood sample was collected without any further sampling or observations.\nPK/TK: Blood samples for test article blood level analysis were taken. Utilizing 18 male and 18 female medium dose animals, approximately 0.3-0.5 mL of blood was taken from three male and three female rats under anesthesia at each sampling time point of pre-dose and at the end of injection (Time 0) and at approximately 0.08, 0.25, 0.5, 1, 2, 4, 8, 12, and 24 hours from the end of the injection after the first and fifth dose. Blood sampling was via retro-orbital bleeding or cardiac puncture bleeding for an animal's terminal sample. Plasma (lithium heparin anticoagulant) samples were prepared and analyzed. General procedures for chemical pathology, necropsy, and histopathology, and statistical methods, for example as described in Example 65, were followed."}, "[4]": {"settings": "male, Balb/c, mouse, plasma, iv, 25 mg/kg"}}, "note": "“Also recorded” adds a separate entry of the source. Where two headings read alike, the source gives them in different places."}
{"smiles": "CN1CCCC1CCNC(=O)c1cn2c3c(c(N4CCC(c5cnccn5)C4)c(F)cc3c1=O)Oc1cc3ccccc3cc1-2", "note": "(stereo not drawn) [CX-3543]", "values": [{"measurement": "tumor growth inhibition", "setting": "[1]", "value": "inhibits tumor growth; also recorded: significant tumor growth inhibition"}, {"measurement": "ClS", "setting": "[2]", "value": 20.5, "unit": "mL/min/kg"}, {"measurement": "Vd", "setting": "[2]; male, Balb/c, mouse, plasma, read-out: Vdss", "value": 7.26, "unit": "L/kg"}, {"measurement": "AUC(0-inf)", "setting": "[2]; [4]", "value": "~20300", "unit": "ng·h/mL"}, {"measurement": "Cmax", "setting": "[2]; [4]", "value": "~5350", "unit": "ng/mL"}, {"measurement": "half-life", "setting": "[2]; [4]", "value": "~4.6", "unit": "h"}, {"measurement": "Dose 5 to Dose 1 ratio for AUC(0-24)", "setting": "[3]; female", "value": 1.5}, {"measurement": "Cmax", "setting": "[3]; female, iv, 7.6 mg/kg, Dose 1", "value": 598, "unit": "ng/mL"}, {"measurement": "Cmax", "setting": "[3]; female, iv, 7.6 mg/kg, Dose 5", "value": 1050, "unit": "ng/mL"}, {"measurement": "AUC(0-t)", "setting": "[3]; female, iv, 7.6 mg/kg, female, Dose 1, read-out: AUC(0-24)", "value": 784, "unit": "ng·h/mL"}, {"measurement": "AUC(0-t)", "setting": "[3]; female, iv, 7.6 mg/kg, female, Dose 5, read-out: AUC(0-24)", "value": 1200, "unit": "ng·h/mL"}, {"measurement": "half-life", "setting": "[3]; female, iv, 7.6 mg/kg, female, Dose 5, read-out: terminal half-life (converted)", "value": 4.8, "unit": "h"}, {"measurement": "half-life", "setting": "[3]; female, iv, 7.6 mg/kg, female, IV, Dose 1 (medium dose group, 7.6 mg/kg), read-out: terminal half-life (converted)", "value": 6.6, "unit": "h"}, {"measurement": "half-life", "setting": "[3]; female, iv, […], female, Dose 1, […] IV, read-out: T1/2 (converted)", "value": 6.6, "unit": "h"}, {"measurement": "half-life", "setting": "[3]; female, iv, […], female, Dose 5, […] IV once daily, read-out: T1/2 (converted)", "value": 4.8, "unit": "h"}, {"measurement": "Dose 5 to Dose 1 ratio for AUC(0-24)", "setting": "[3]; male", "value": 1.3}, {"measurement": "Accumulation Ratio", "setting": "[3]; male, Dose 5 to Dose 1 AUC(0-24), 7.1 mg/kg IV", "value": 1.3}, {"measurement": "Cmax", "setting": "[3]; male, iv, 7.1 mg/kg, Dose 1, 7.1 mg/kg IV", "value": 514, "unit": "ng/mL"}, {"measurement": "Cmax", "setting": "[3]; male, iv, 7.1 mg/kg, Dose 5, 7.1 mg/kg IV once daily", "value": 485, "unit": "ng/mL"}, {"measurement": "AUC(0-t)", "setting": "[3]; male, iv, 7.1 mg/kg, male, Dose 1, 7.1 mg/kg IV, read-out: AUC(0-24)", "value": 779, "unit": "ng·h/mL"}, {"measurement": "half-life", "setting": "[3]; male, iv, 7.1 mg/kg, male, Dose 1, 7.1 mg/kg IV, read-out: T1/2 (converted)", "value": 6.8, "unit": "h"}, {"measurement": "AUC(0-t)", "setting": "[3]; male, iv, 7.1 mg/kg, male, Dose 5, 7.1 mg/kg IV once daily, read-out: AUC(0-24)", "value": 1010, "unit": "ng·h/mL"}, {"measurement": "half-life", "setting": "[3]; male, iv, 7.1 mg/kg, male, Dose 5, 7.1 mg/kg IV once daily, read-out: T1/2 (converted)", "value": 8.8, "unit": "h"}, {"measurement": "Cmax", "setting": "[3]; male, iv, 7.6 mg/kg, Dose 1", "value": 514, "unit": "ng/mL"}, {"measurement": "Cmax", "setting": "[3]; male, iv, 7.6 mg/kg, Dose 5", "value": 485, "unit": "ng/mL"}, {"measurement": "AUC(0-t)", "setting": "[3]; male, iv, 7.6 mg/kg, male, Dose 1, read-out: AUC(0-24)", "value": 779, "unit": "ng·h/mL"}, {"measurement": "AUC(0-t)", "setting": "[3]; male, iv, 7.6 mg/kg, male, Dose 5, read-out: AUC(0-24)", "value": 1010, "unit": "ng·h/mL"}, {"measurement": "half-life", "setting": "[3]; male, iv, 7.6 mg/kg, male, Dose 5, read-out: terminal half-life (converted)", "value": 8.8, "unit": "h"}, {"measurement": "half-life", "setting": "[3]; male, iv, 7.6 mg/kg, male, IV, Dose 1 (medium dose group, 7.6 mg/kg), read-out: terminal half-life (converted)", "value": 6.8, "unit": "h"}, {"measurement": "AUC(0-inf)", "setting": "[3]; female, Dose 1, 7.2 mg/kg IV", "value": 861, "unit": "ng·h/mL"}, {"measurement": "AUC(0-inf)", "setting": "[3]; iv, 7.6 mg/kg, female, Dose 1", "value": 861, "unit": "ng·h/mL"}, {"measurement": "AUC(0-inf)", "setting": "[3]; iv, 7.6 mg/kg, male, Dose 1", "value": 833, "unit": "ng·h/mL"}, {"measurement": "AUC(0-inf)", "setting": "[3]; male, Dose 1, 7.1 mg/kg IV", "value": 833, "unit": "ng·h/mL"}]}
